Here are results for twelve molecules from patent US5750530A, “Pharmaceutical diketopiperazine compounds” (Xenova Limited, priority 1994, dated 1998).

Structures are written as SMILES. Where a name gives a salt, the structure may show the parent alone.

For this assay, the target named is PAI-1 (Homo sapiens, UniProt P05121). Description: biochemical. Type of assay: biochemical. The settings on record: for IC50: PAI chromogenic substrate assay. An outline of the steps:
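Compound preincubated with PAI-1 before addition to a tPA system; residual tPA converts plasminogen to plasmin, which cleaves chromogenic substrate S2251. Released p-nitroaniline read at 405 nm; values given as % inhibition at set concentrations or IC50.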

Sequence of PAI-1 (P05121 24-402): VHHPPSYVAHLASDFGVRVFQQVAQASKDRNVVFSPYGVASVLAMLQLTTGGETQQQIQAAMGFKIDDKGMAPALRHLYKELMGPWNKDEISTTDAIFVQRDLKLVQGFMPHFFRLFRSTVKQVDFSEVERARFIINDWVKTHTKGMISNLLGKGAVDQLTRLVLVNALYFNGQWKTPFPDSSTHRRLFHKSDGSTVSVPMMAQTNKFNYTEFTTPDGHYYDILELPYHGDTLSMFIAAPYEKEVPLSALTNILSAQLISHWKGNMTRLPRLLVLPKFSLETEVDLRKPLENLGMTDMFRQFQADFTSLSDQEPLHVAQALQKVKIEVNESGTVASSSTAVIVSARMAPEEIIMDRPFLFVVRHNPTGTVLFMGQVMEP

On to `COc1ccc(/C=c2\[nH]c(=O)/c(=C/c3ccc(SCCN(C)C)cc3)[nH]c2=O)cc1` [Compound 5479, (3Z,6Z)-3-(4-(2-Dimethylaminoethylthio)benzylidene)-6-(4-methoxybenzylidene)-2,5-piperazinedione], for which inhibition was half-maximal at 4.3 µM (IC50). In addition, where the note is “5 μm”, the % Inhibition (commonly the change of the read-out against control, counted positive when it falls) came to 66%. The “% Inhibition” value (20 μm) is 70%.

For the molecule `CN(C)CCSc1ccc(/C=c2\[nH]c(=O)/c(=C/c3c4ccccc4cc4ccccc34)[nH]c2=O)s1` [Compound 5498, (3Z,6Z)-6-(9-Anthrylmethylene)-3-(5-(2-dimethylaminoethylthio)-2-thienyl)methylene-2,5-piperazinedione], the IC50 (usually the concentration that inhibits the measured activity by half) came out at 20 µM. Further, the “% Inhibition” value (5 μm) was 15%. Moreover, under “20 μm”, the “% Inhibition” value is listed as 52%.

With `COc1ccc(/C=c2\[nH]c(=O)/c(=C/c3ccc(SCCN(C)C)cc3)[nH]c2=O)cc1` [Compound 5479.HCl, (3Z,6Z)-3-(4-(2-Dimethylaminoethylthio)benzylidene)-6-(4-methoxybenzylidene)-2,5-piperazinedione], the IC50 worked out at 4.8 µM. Moreover, the “% Inhibition” value (5 μm) is on record as 62%. For the same molecule, the “% Inhibition” value (20 μm) is listed as 75%.

In turn, `CN(C)CCSc1ccc(/C=c2\[nH]c(=O)/c(=C/c3ccc(Br)cc3)[nH]c2=O)s1` [Compound 5489, (3Z,6Z)-6-(4-Bromobenzylidene)-3-(5-(2-dimethylaminoethylthio)-2-thienyl)methylene-2,5-piperazinedione] registered a 50% inhibitory concentration (IC50) of 13.6 µM. For the same molecule, for the setting “5 μm”, the “% Inhibition” value came to 6%. In addition, the “% Inhibition” value (20 μm) is 56%.

The molecule `CN(C)CCSc1ccc(/C=c2\[nH]c(=O)/c(=C/c3ccccc3)[nH]c2=O)s1` [Compound 5131.HCl, (3Z,6Z)-6-Benzylidene-3-(5-(2-dimethylaminoethylthio)-2-thienyl)methylene-2,5-piperazinedione] showed a concentration for half-maximal inhibition (IC50) of 5 µM. Besides, for the setting “20 μm”, the “% Inhibition” value is given as 65%. The “% Inhibition” value (100 μm) was determined as 56%.

Take `CC(=O)Nc1ccc(/C=c2\[nH]c(=O)/c(=C/c3ccc(SCCN(C)C)s3)[nH]c2=O)cc1` [Compound 5300.HCl, (3Z,6Z)-6-(4-Acetamidobenzylidene)-3-(5-(2-dimethylaminoethylthio)-2-thienyl)methylene-2,5-piperazinedione]: the “% Inhibition” value is, setting by setting: (5 μm) 10%; (20 μm) 41%; (100 μm) 26%.

`COc1cc(/C=c2\[nH]c(=O)/c(=C/c3ccc(SCCN(C)C)s3)[nH]c2=O)ccc1OCc1ccc([N+](=O)[O-])cc1` [Compound 5488, (3Z,6Z)-3-(5-(2-Dimethylaminoethylthio)-2-thienyl)methylene-6-(3-methoxy-4-(4-nitrobenzyloxy)benzylidene)-2,5-piperazinedione] showed an IC50 of 8.2 µM. Further, the “% Inhibition” value (5 μm) is recorded as 14%. Moreover, the “% Inhibition” value (20 μm) came out at 64%.

As for `CN(C)CCSc1ccc(/C=c2\[nH]c(=O)/c(=C/c3cn(C)c4ccccc34)[nH]c2=O)cc1` [Compound 5497.HCl, (3Z,6Z)-6-(4-(2-Dimethylaminoethylthio)benzylidene)-3-(1-methyl-3-indolyl)methylene-2,5-piperazinedione], the 50% inhibitory concentration (IC50) was determined as 11.5 µM. Moreover, the “% Inhibition” value (5 μm) came to 12%. In addition, the “% Inhibition” value (20 μm) worked out at 59%.

Turning to `CN(C)CCSc1ccc(/C=c2\[nH]c(=O)/c(=C/c3cccc(Cl)c3)[nH]c2=O)cc1` [Compound 5292, (3Z,6Z)-3-(3-Chlorobenzylidene)-6-(4-(2-dimethylaminoethylthio)benzylidene)-2,5-piperazinedione], 3 µM corresponded to half-maximal inhibition (IC50).

Turning to `CN(C)CCSc1sc(/C=c2\[nH]c(=O)/c(=C/c3ccccc3)[nH]c2=O)cc1[N+](=O)[O-]` [Compound 5403, (3Z,6Z)-6-Benzylidene-3-(5-(2-dimethylaminoethylthio)-4-nitro-2-thienyl)methylene-2,5-piperazinedione], inhibition was half-maximal at 20 µM (IC50). Also, the “% Inhibition” value (5 μm) is on record as 26%. Also, the “% Inhibition” value (20 μm) was 52%.

As for `CN(C)CCSc1ccc(/C=c2\[nH]c(=O)/c(=C/c3ccc(C(C)(C)C)cc3)[nH]c2=O)cc1` [Compound 5440.HCl, (3Z,6Z)-3-(4-(2-Dimethylaminoethylthio)benzylidene)-6-(4-tert-butylbenzylidene)-2,5-piperazinedione], the “% Inhibition” value (5 μm) stood at 20% and the “% Inhibition” value (20 μm) is given as 36%.

Take `COc1cccc(/C=c2\[nH]c(=O)/c(=C/c3ccc(SCCN(C)C)cc3)[nH]c2=O)c1` [Compound 5438.HCl, (3Z,6Z)-6-(4-(2-Dimethylaminoethylthio)benzylidene)-3-(3-methoxybenzylidene)-2,5-piperazinedione]: the “% Inhibition” value (5 μm) is 3%.
